Where a name gives a salt, the structure may show the parent alone. Read-outs that look alike come from different tables or passages of the source. Some results are limits rather than exact numbers.

The values that follow come from publication PMC6816013 (Journal of Medicinal Chemistry, 2019).

The nature of series [1]: Cell cytotoxicity assay. The format is cell-based. The settings on record: cytotoxicity EC50 / Pf EC50.
Series [2] addresses HSA (Homo sapiens, UniProt P02768). The experiment in a line: HSA binding (plasma protein binding). The format is in vitro ADME.
Series [3] relates to Plasmodium falciparum 3D7A. In words: microbe, parasite or virus in culture. The settings on record: read-out: Pf EC50.
The test system of series [4] is P. falciparum strain 3D7A. The format is cell-based, Plasmodium falciparum. The settings on record: PRR, 10 × EC50, result in words.

Sequence of HSA (P02768 25-609): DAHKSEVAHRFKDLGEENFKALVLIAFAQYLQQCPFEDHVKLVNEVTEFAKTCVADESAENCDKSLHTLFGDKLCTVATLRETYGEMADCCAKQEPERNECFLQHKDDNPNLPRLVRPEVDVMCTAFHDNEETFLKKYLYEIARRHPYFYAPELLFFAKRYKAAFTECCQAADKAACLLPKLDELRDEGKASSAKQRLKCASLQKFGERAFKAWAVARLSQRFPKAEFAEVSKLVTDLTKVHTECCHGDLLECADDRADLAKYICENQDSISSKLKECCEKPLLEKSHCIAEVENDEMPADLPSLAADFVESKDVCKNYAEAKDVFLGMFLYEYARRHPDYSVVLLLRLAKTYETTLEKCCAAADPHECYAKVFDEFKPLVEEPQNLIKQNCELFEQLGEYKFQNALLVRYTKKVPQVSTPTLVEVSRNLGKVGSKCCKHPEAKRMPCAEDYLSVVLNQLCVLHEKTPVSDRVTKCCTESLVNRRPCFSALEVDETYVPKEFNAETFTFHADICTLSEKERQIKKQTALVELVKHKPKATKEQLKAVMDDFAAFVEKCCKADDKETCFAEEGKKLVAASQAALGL

On to `CN1CCN(c2ccc(Nc3nccc(-c4sc(C5CCNCC5)nc4-c4ccc(F)cc4)n3)cc2)CC1` [Compound 7, reference compound], for which the “cytotoxicity/cell activity safety window” value in series [1] was found to be 5.4. Also, the HSA binding in series [2] worked out at 97%.
By EC50 is commonly meant the concentration that produces a half-maximal response. As to `Nc1nc(-c2ccc(F)cc2)c(-c2ccnc(Nc3ccc(N4CCOCC4)cc3)n2)s1` [Compound 13, 4-[2-Amino-4-(4-fluorophenyl)-1,3-thiazol-5-yl]-N-[4-(morpholin-4-yl)phenyl]pyrimidin-2-amine], in series [3], the EC50 is over 5000 nM.
Turning to `CCCS(=O)(=O)Nc1nc(-c2ccc(F)cc2)c(-c2ccnc(Nc3ccc(N4CCNCC4)cc3)n2)s1` [Compound 17, N-[4-(4-Fluorophenyl)-5-{2-[4-(piperazin-1-yl)anilino]pyrimidin-4-yl}-1,3-thiazol-2-yl]propane-1-sulfonamide Trifluoroacetate], the AMP (PAMPA) was 0.3.
On the same count and under the same terms, the result for `O=S(=O)(Nc1nc(-c2ccc(F)cc2)c(-c2ccnc(Nc3ccc(N4CCNCC4)cc3)n2)s1)C1CCNCC1` [Compound 18, N-[4-(4-Fluorophenyl)-5-{2-[4-(piperazin-1-yl)anilino]pyrimidin-4-yl}-1,3-thiazol-2-yl]piperidine-4-sulfonamide Trifluoroacetate] reads 0.3.
In series [2], `Fc1ccc(-c2nc(C3CCNCC3)sc2-c2ccnc(Nc3nncs3)n2)cc1` [Compound 19, N-(4-(4-(4-Fluorophenyl)-2-(piperidin-4-yl)thiazol-5-yl)pyrimidin-2-yl)-1,3,4-thiadiazol-2-amine] showed an HSA binding of 92%. The same molecule returned an AMP (Tables 2 and 5) of under 1e-07 cm/s.
Molecule `Cc1nnc(Nc2nccc(-c3sc(C4CCNCC4)nc3-c3ccc(F)cc3)n2)s1` [Compound 20, N-(4-(4-(4-Fluorophenyl)-2-(piperidin-4-yl)thiazol-5-yl)pyrimidin-2-yl)-5-methyl-1,3,4-thiadiazol-2-amine] had an HSA binding in series [2] of 92%. Where the note is “Tables 2 and 5”, this molecule returned an AMP of 8e-07 cm/s.
For `Cc1csc(Nc2nccc(-c3sc(C4CCNCC4)nc3-c3ccc(F)cc3)n2)n1` [Compound 21, N-(4-(4-(4-Fluorophenyl)-2-(piperidin-4-yl)thiazol-5-yl)pyrimidin-2-yl)-4-methylthiazol-2-amine], in that order: 96% and 1.5e-06 cm/s.
For `Cc1cc(Nc2nccc(-c3sc(C4CCNCC4)nc3-c3ccc(F)cc3)n2)on1` [Compound 22, N-(4-(4-(4-Fluorophenyl)-2-(piperidin-4-yl)thiazol-5-yl)pyrimidin-2-yl)-3-methylisoxazol-5-amine] the same measures were 94% and 1.2e-06 cm/s.
`Cc1cc(Nc2nccc(-c3sc(C4CCNCC4)nc3-c3ccc(F)cc3)n2)nn1C` [Compound 23, N-(1,5-Dimethyl-1H-pyrazol-3-yl)-4-(4-(4-fluorophenyl)-2-(piperidin-4-yl)thiazol-5-yl)pyrimidin-2-amine]: the HSA binding in series [2] is given as 93%. Moreover, the AMP (Tables 2 and 5) was determined as 2e-06 cm/s.
For `Fc1ccc(-c2nc(C3CCNCC3)sc2-c2ccnc(Nc3ccccn3)n2)cc1` [Compound 25, 4-(4-(4-Fluorophenyl)-2-(piperidin-4-yl)thiazol-5-yl)-N-(pyridin-2-yl)pyrimidin-2-amine] the same measures were 94% and 3.3e-06 cm/s.
For `Fc1ccc(-c2nc(C3CCNCC3)sc2-c2ccnc(Nc3cnccn3)n2)cc1` [Compound 26, 4-(4-(4-Fluorophenyl)-2-(piperidin-4-yl)thiazol-5-yl)-N-(pyrazin-2-yl)pyrimidin-2-amine] the same measures were 92% and 1.6e-06 cm/s.
For `Fc1ccc(-c2nc(C3CCNCC3)sc2-c2ccnc(Nc3cccnn3)n2)cc1` [Compound 27, N-(4-(4-(4-Fluorophenyl)-2-(piperidin-4-yl)thiazol-5-yl)pyrimidin-2-yl)pyridazin-3-amine] the same measures were 90% and 1.9e-06 cm/s.
`Fc1ccc(-c2nc(C3CCNCC3)oc2-c2ccnc(Nc3ccncn3)n2)cc1` [Compound 28B] returned an HSA binding in series [2] of 89%. The molecule also yielded an AMP (Tables 2 and 5) of 1.9e-06 cm/s.
In series [2], `Cc1nccc(Nc2nccc(-c3sc(C4CCNCC4)nc3-c3ccc(F)cc3)n2)n1` [Compound 29, 4-[4-(4-Fluorophenyl)-2-(piperidin-4-yl)-1,3-thiazol-5-yl]-N-(2-methylpyrimidin-4-yl)pyrimidin-2-amine] registered an HSA binding of 91%. Moreover, the AMP (Tables 2 and 5) turned out to be 1.8e-06 cm/s.
In the case of `CCOc1nccc(Nc2nccc(-c3sc(C4CCNCC4)nc3-c3ccc(F)cc3)n2)n1` [Compound 30, N-(2-Ethoxypyrimidin-4-yl)-4-[4-(4-fluorophenyl)-2-(piperidin-4-yl)-1,3-thiazol-5-yl]pyrimidin-2-amine Trifluoroacetate], for the setting “PAMPA”, the AMP worked out at 1.7.
With `Cc1cc(Nc2nccc(-c3sc(C4CCNCC4)nc3-c3ccc(F)cc3)n2)ccn1` [Compound 31, 4-(4-(4-Fluorophenyl)-2-(piperidin-4-yl)thiazol-5-yl)-N-(2-methylpyridin-4-yl)pyrimidin-2-amine], the “cytotoxicity/cell activity safety window” value in series [1] is 25. Besides, in series [2], the HSA binding amounted to 97.8%. This molecule also gave an AMP (Tables 2 and 5) of 2.1e-06 cm/s. Moreover, the “rate of killing in PRR study” value in series [4] was “extremely fast-killing effect”.
In the case of `Oc1cc(Nc2nccc(-c3sc(C4CCNCC4)nc3-c3ccc(F)cc3)n2)ccn1` [Compound 33, 4-({4-[4-(4-Fluorophenyl)-2-(piperidin-4-yl)-1,3-thiazol-5-yl]pyrimidin-2-yl}amino)pyridin-2-ol Trifluoroacetate], the AMP (PAMPA) is listed as 0.2.
`COc1cc(Nc2nccc(-c3sc(C4CCNCC4)nc3-c3ccc(F)cc3)n2)cc(C)n1` [Compound 34, 4-[4-(4-Fluorophenyl)-2-(piperidin-4-yl)-1,3-thiazol-5-yl]-N-(2-methoxy-6-methylpyridin-4-yl)pyrimidin-2-amine Trifluoroacetate]: the AMP (PAMPA) is 1.9.
In turn, `Cc1nc(Nc2nccc(-c3sc(C4CCNCC4)nc3-c3ccc(F)cc3)n2)ccc1F` [Compound 35, N-(5-Fluoro-6-methylpyridin-2-yl)-4-(4-(4-fluorophenyl)-2-(piperidin-4-yl)thiazol-5-yl)pyrimidin-2-amine] registered an HSA binding in series [2] of 96%. Moreover, where the note is “Tables 2 and 5”, the AMP turned out to be 3e-06 cm/s.
On to `OC(CNc1nccc(-c2sc(C3CCNCC3)nc2-c2ccc(F)cc2)n1)c1ccncc1` (stereo not drawn) [Compound 40, 2-({4-[4-(4-Fluorophenyl)-2-(piperidin-4-yl)-1,3-thiazol-5-yl]pyrimidin-2-yl}amino)-1-(pyridin-4-yl)ethanol], for which, in series [2], the HSA binding was found to be 85%. Besides, the AMP (Tables 2 and 5) worked out at 1e-07 cm/s. The EC50 in series [3] was found to be 1050 nM.
`Nc1nccc(-c2sc(C3CCNCC3)nc2-c2ccc(F)cc2)n1` [Compound 41, 4-[4-(4-Fluorophenyl)-2-(piperidin-4-yl)-1,3-thiazol-5-yl]pyrimidin-2-amine]: in series [2], the HSA binding was determined as 75%. The molecule also registered an AMP (Tables 1 and 4) of 1.3e-05 cm/s.
`c1cc(Nc2nccc(-c3sc(C4CCNCC4)nc3C3CC3)n2)ncn1` [Compound 58, 4-(4-Cyclopropyl-2-(piperidin-4-yl)thiazol-5-yl)-N-(pyrimidin-4-yl)pyrimidin-2-amine Hydrochloride] gave an AMP (PAMPA) of 1.8.
`Cc1cc(Nc2nccc(-c3sc(C4CCNCC4)nc3CN3CCCCC3)n2)ccn1` [Compound 60, N-(2-Methylpyridin-4-yl)-4-(4-(piperidin-1-ylmethyl)-2-(piperidin-4-yl)thiazol-5-yl)pyrimidin-2-amine Trihydrochloride]: in series [1], the “cytotoxicity/cell activity safety window” value turned out to be 105. The “rate of killing in PRR study” value in series [4] is “potent fast-killing properties”.
With `C[C@H]1[C@H](OC(=O)CCC(=O)O)O[C@@H]2O[C@@]3(C)CC[C@H]4[C@H](C)CC[C@@H]1[C@@]24OO3` [artesunate], the “rate of killing in PRR study” value in series [4] is recorded as “fast rate of killing”.
For the molecule `O=C1C(O)=C([C@H]2CC[C@H](c3ccc(Cl)cc3)CC2)C(=O)c2ccccc21` [atovaquone], the “rate of killing in PRR study” value in series [4] is reported as “slow rate of killing”.
Take `CCc1nc(N)nc(N)c1-c1ccc(Cl)cc1` [pyrimethamine]: in series [4], the “rate of killing in PRR study” value is given as “moderate rate of killing”.
